28 compounds from US11746100B2 (GLOBAL BLOOD THERAPEUTICS, INC., priority 2020, dated 2023) can be followed below.

This assay deals with T1, human ferroportin (Homo sapiens, UniProt Q9NP59).
T1 construct: luciferase reporter (read with the Nano-Glo Luciferase Assay System); expressed in transfected cells; host or cells: CHO cells, stably transfected, expression induced with doxycycline
T1 sequence (Q9NP59 1-571): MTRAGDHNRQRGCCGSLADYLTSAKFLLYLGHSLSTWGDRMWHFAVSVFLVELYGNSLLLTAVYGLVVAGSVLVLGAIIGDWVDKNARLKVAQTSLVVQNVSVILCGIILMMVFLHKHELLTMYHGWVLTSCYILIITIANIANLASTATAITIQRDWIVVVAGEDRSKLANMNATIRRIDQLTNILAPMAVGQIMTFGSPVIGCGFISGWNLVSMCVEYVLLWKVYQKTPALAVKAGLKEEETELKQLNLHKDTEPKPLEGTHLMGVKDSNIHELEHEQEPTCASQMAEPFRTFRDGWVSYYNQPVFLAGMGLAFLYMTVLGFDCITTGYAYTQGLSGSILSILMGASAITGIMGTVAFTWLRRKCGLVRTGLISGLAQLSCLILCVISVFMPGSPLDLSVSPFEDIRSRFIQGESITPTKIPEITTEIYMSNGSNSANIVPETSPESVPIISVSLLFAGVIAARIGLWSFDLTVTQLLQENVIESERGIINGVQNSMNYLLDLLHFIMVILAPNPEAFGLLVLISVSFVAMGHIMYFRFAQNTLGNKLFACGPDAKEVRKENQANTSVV
The experiment in a line: Biological in-vitro ferroportin internalization assay (luciferase reporter). Format: cell-based. Conditions: average pEC50; stably-transfected CHO cell line expressing human ferroportin tagged to a luciferase reporter; 6 h incubation with test compound. The method in brief: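 Read-out is Nano-Glo luciferase signal after 6 h compound exposure, with average pEC50 derived. Cells are a stable CHO line carrying luciferase-tagged human ferroportin, pre-loaded 24 h with ferric ammonium citrate and doxycycline-induced for 24 h.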
For orientation: pEC50 means the negative decadic logarithm of the EC50, by convention in mol/L. In turn, `C[C@H](C(=O)NC(C)(C)C)N(C)c1nc(-c2cc(OC3COC3)ccn2)nc2c1CCC2` [Compound 305] had a negative-log EC50 (pEC50) of 7.8. Next, `CN1CC[C@H](Oc2ccnc(-c3nc4c(c(N(C)CC(=O)NC(C)(C)C)n3)CCC4)c2)C1` [Compound 438, N-tert-butyl-2-{methyl[2-(4-{[(3S)-1-methylpyrrolidin-3-yl]oxy}pyridin-2-yl)-5H,6H,7H-cyclopenta[d]pyrimidin-4-yl]amino}acetamide]: 7.7. For the compound `CN(CC(=O)NC(C)(C)C)c1nc(-c2cc(OCC(C)(C)O)ccn2)nc2c1C(=O)CC2` [Compound 492, N-tert-butyl-2-({2-[4-(2-hydroxy-2-methylpropoxy)pyridin-2-yl]-5-oxo-5H,6H,7H-cyclopenta[d]pyrimidin-4-yl}(methyl)amino)acetamide], the pEC50 turned out to be 6.6. The same measure for `Cc1cc(-c2nc3c(c(N(C)CC(=O)NC(C)(C)C)n2)CCC3)ncc1F` [Compound 303, N-tert-butyl-2-{[2-(5-fluoro-4-methylpyridin-2-yl)-5H,6H,7H-cyclopenta[d]pyrimidin-4-yl](methyl)amino}acetamide]: 6.4; for `CN(CC(=O)NC(C)(C)C)c1nc(-c2cc(OCC3(O)CCC3)ccn2)nc2c1CCC2` [Compound 388, N-tert-butyl-2-[(2-{4-[(1-hydroxycyclobutyl)methoxy]pyridin-2-yl}-5H,6H,7H-cyclopenta[d]pyrimidin-4-yl)(methyl)amino]acetamide]: 8.2.

`COc1ccc(NC(=O)CN(C)c2nc(-c3cc(OC(F)(F)F)ccn3)nc3c2CCC3)cn1` [Compound 230, N-(6-methoxypyridin-3-yl)-2-[methyl({2-[4-(trifluoromethoxy)pyridin-2-yl]-5H,6H,7H-cyclopenta[d]pyrimidin-4-yl})amino]acetamide] gave a negative logarithm of the EC50 (pEC50) of 6.6. Compound `CN(CC(=O)NC(C)(C)C)c1nc(-c2cc(OCC3(O)CCCCC3)ccn2)nc2c1CCC2` [Compound 396, N-tert-butyl-2-[(2-{4-[(1-hydroxycyclohexyl)methoxy]pyridin-2-yl}-5H,6H,7H-cyclopenta[d]pyrimidin-4-yl)(methyl)amino]acetamide] displayed a pEC50 of 8.5.

Consider `COc1cccc(NC(=O)CN(C)c2nc(-c3cc(OCCO)ccn3)nc3c2CCC3)c1` [Compound 279, 2-({2-[4-(2-hydroxyethoxy)pyridin-2-yl]-5H,6H,7H-cyclopenta[d]pyrimidin-4-yl}(methyl)amino)-N-(3-methoxyphenyl)acetamide], for which the pEC50 was 8.2.

As for `COc1ncc(NC(=O)CN(C)c2nc(-c3cc(OCC(C)(C)O)ccn3)nc3c2CCC3)cn1` [Compound 260, 2-({2-[4-(2-hydroxy-2-methylpropoxy)pyridin-2-yl]-5H,6H,7H-cyclopenta[d]pyrimidin-4-yl}(methyl)amino)-N-(2-methoxypyrimidin-5-yl)acetamide], the negative-log EC50 (pEC50) was determined as 7.6. Next, `CN(CC(=O)NC(C)(C)C)c1nc(-c2cc(OC[C@@H](O)CO)ccn2)nc2c1CCC2` [Compound 451, N-tert-butyl-2-[(2-{4-[(2S)-2,3-dihydroxypropoxy]pyridin-2-yl}-5H,6H,7H-cyclopenta[d]pyrimidin-4-yl)(methyl)amino]acetamide]: 7.8. Next, `C[C@H](C(=O)NC(C)(C)C)N(C)c1nc(-c2cn(C)cn2)nc2c1CCC2` [Compound 112, (2R)—N-tert-butyl-2-{methyl[2-(1-methyl-1H-imidazol-4-yl)-5H,6H,7H-cyclopenta[d]pyrimidin-4-yl]amino}propanamide]: 8; `CN(CC(=O)Nc1cnn(C)c1)c1nc(-c2cc(OCC(F)(F)F)ccn2)nc2c1CCC2` [Compound 177, 2-[methyl({2-[4-(2,2,2-trifluoroethoxy)pyridin-2-yl]-5H,6H,7H-cyclopenta[d]pyrimidin-4-yl})amino]-N-(1-methyl-1H-pyrazol-4-yl)acetamide]: 6.9; `COc1ccnc(-c2nc3c(c(N4CCCO[C@@H]5CCC[C@@H]54)n2)CCC3)c1` [Compound 54, 2-{4-[(5aS,8aR)-octahydro-2H-cyclopenta[b][1,4]oxazepin-5-yl]-5H,6H,7H-cyclopenta[d]pyrimidin-2-yl}-4-methoxypyridine]: 6.9.

On to `CN(CC(=O)Nc1cnn(C2CC2)c1)c1nc(-c2cc(OCCO)ccn2)nc2c1CCC2` [Compound 353, N-(1-cyclopropyl-1H-pyrazol-4-yl)-2-({2-[4-(2-hydroxyethoxy)pyridin-2-yl]-5H,6H,7H-cyclopenta[d]pyrimidin-4-yl}(methyl)amino)acetamide], for which the pEC50 was found to be 7.8. Next, `CN(CC(=O)NC(C)(C)C)c1nc(-c2ccc(OCCO)cn2)nc2c1CCC2` [Compound 40, N-tert-butyl-2-({2-[5-(2-hydroxyethoxy)pyridin-2-yl]-5H,6H,7H-cyclopenta[d]pyrimidin-4-yl}(methyl)amino)acetamide]: 7.1. The same measure for `CN(CC(=O)NC(C)(C)C)c1nc(-c2cc(OCCOc3cccnn3)ccn2)nc2c1CCC2` [Compound 468, N-tert-butyl-2-[methyl(2-{4-[2-(pyridazin-3-yloxy)ethoxy]pyridin-2-yl}-5H,6H,7H-cyclopenta[d]pyrimidin-4-yl)amino]acetamide]: 8.5; for `COc1ccc(NC(=O)CN(C)c2nc(-c3cc4ncsc4cn3)nc3c2CCC3)cn1` [Compound 329, N-(6-methoxypyridin-3-yl)-2-[methyl(2-{[1,3]thiazolo[5,4-c]pyridin-6-yl}-5H,6H,7H-cyclopenta[d]pyrimidin-4-yl)amino]acetamide]: 6.8; for `COc1ccnc(-c2nc3c(c(N(C)[C@@H]4CCN(c5ccccc5)C4=O)n2)CCC3)c1` [Compound 132, (3R)-3-{[2-(4-methoxypyridin-2-yl)-5H,6H,7H-cyclopenta[d]pyrimidin-4-yl](methyl)amino}-1-phenylpyrrolidin-2-one]: 7.3. Next, `CN(CC(=O)Nc1ccc(Cl)cc1)c1nc(-c2cc(OCCO)ccn2)nc2c1CCC2` [Compound 339, N-(4-chloropehnyl)-2-({2-[4-(2-hydroxyethoxy)pyridin-2-yl]-5H,6H,7H-cyclopenta[d]pyrimidin-4-yl}(methyl)amino)acetamide]: 8.2. Turning to `COc1ccc2c(c1)CCN(c1nc(-c3ccccn3)nc3c1CCC3)CC2` [Compound 2, 7-methoxy-3-[2-(pyridin-2-yl)-5H,6H,7H-cyclopenta[d]pyrimidin-4-yl]-2,3,4,5-tetrahydro-1H-3-benzazepine], the pEC50 is recorded as 6.6. As to `CN(CC(=O)NC(C)(C)C)c1nc(-c2ccccn2)nc2c1CCC2` [Compound 89, N-tert-butyl-2-{methyl[2-(pyridin-2-yl)-5H,6H,7H-cyclopenta[d]pyrimidin-4-yl]amino}acetamide], the negative logarithm of the EC50 (pEC50) was 7.3. Next, `Cc1ccc(NC(=O)CN(C)c2nc(-c3cc(OCCO)ccn3)nc3c2CCC3)cn1` [Compound 199, 2-({2-[4-(2-hydroxyethoxy)pyridin-2-yl]-5H,6H,7H-cyclopenta[d]pyrimidin-4-yl}(methyl)amino)-N-(6-methylpyridin-3-yl)acetamide]: 7.9; `c1ccc(-c2nc3c(c(N4CCCCCC4)n2)CCC3)nc1` [Compound 92, 1-[2-(pyridin-2-yl)-5H,6H,7H-cyclopenta[d]pyrimidin-4-yl]azepane]: 6.5. The compound `COc1ncc(NC(=O)CN(C)c2nc(-c3cn(C)cn3)nc3c2CCC3)cn1` [Compound 186, N-(2-methoxypyrimidin-5-yl)-2-{methyl[2-(1-methyl-1H-imidazol-4-yl)-5H,6H,7H-cyclopenta[d]pyrimidin-4-yl]amino}acetamide] yielded a pEC50 of 7. For `CC(C)NC(=O)[C@@H](C)N(C)c1nc(-c2cc(OCC(C)(C)O)ccn2)nc2c1CCC2` [Compound 453, (2R)-2-({2-[4-(2-hydroxy-2-methylpropoxy)pyridin-2-yl]-5H,6H,7H-cyclopenta[d]pyrimidin-4-yl}(methyl)amino)-N-(propan-2-yl)propanamide], the pEC50 amounted to 8.1. The same measure for `C[C@H](C(=O)NC1CCCCC1)N(C)c1nc(-c2ccccn2)nc2c1CCC2` [Compound 108, (2R)—N-cyclohexyl-2-{methyl[2-(pyridin-2-yl)-5H,6H,7H-cyclopenta[d]pyrimidin-4-yl]amino}propanamide]: 7.6; for `CN(CC(=O)N(C)C(C)(C)C)c1nc(-c2cc(OC3COC3)ccn2)nc2c1CCC2` [Compound 322, N-tert-butyl-N-methyl-2-[methyl({2-[4-(oxetan-3-yloxy)pyridin-2-yl]-5H,6H,7H-cyclopenta[d]pyrimidin-4-yl})amino]acetamide]: 7.7; for `CN(c1nc(-c2cc(OCCO)ccn2)nc2c1CCC2)[C@@H]1CCCN(c2cccc(F)c2)C1=O` [Compound 321, (3R)-1-(3-fluorophenyl)-3-({2-[4-(2-hydroxyethoxy)pyridin-2-yl]-5H,6H,7H-cyclopenta[d]pyrimidin-4-yl}(methyl)amino)piperidin-2-one]: 7.1.
